In the supplement of paper PMC10307832:

Experiments:
Assay in all cases: relative viability (nuclei count vs DMSO), 5 days (fraction); higher = more cells survive
[1] = test system: 201T
Outline: (§1)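 Lung cancer cell lines in 1536-well plates got either a single drug or a fixed anchor-drug dose together with five library-drug doses (not always all listed) in √10 steps, by pin tool, on the day after seeding. Nuclei were counted after 5 days, and relative viability is the treated-to-vehicle ratio of nuclei counts. Values are medians of duplicate plates.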

[2] = test system: A-427
Outline: as §1

[3] = test system: COR-L23
Outline: as §1

[4] = test system: HARA
Outline: as §1

[5] = test system: HCC-78
Outline: as §1

[6] = test system: LCLC-103H
Outline: as §1

[7] = test system: LCLC-97TM1
Outline: as §1

[8] = test system: LK-2
Outline: as §1

[9] = test system: LOU-NH91
Outline: as §1

[10] = test system: LXF-289
Outline: as §1

[11] = test system: NCI-H1650
Outline: as §1

[12] = test system: NCI-H1651
Outline: as §1

[13] = test system: NCI-H1793
Outline: as §1

[14] = test system: NCI-H2347
Outline: as §1

[15] = test system: NCI-H23
Outline: as §1

[16] = test system: NCI-H2405
Outline: as §1

[17] = test system: NCI-H520
Outline: as §1

[18] = test system: NCI-H522
Outline: as §1

[19] = test system: NCI-H647
Outline: as §1

[20] = test system: NCI-H838
Outline: as §1

[21] = test system: PC-3 [JPC-3]
Outline: as §1

[22] = test system: RERF-LC-KJ
Outline: as §1

[23] = test system: UMC-11
Outline: as §1

Compound: CN1CCN(CCOc2cc(OC3CCOCC3)c3c(Nc4c(Cl)ccc5c4OCO5)ncnc3c2)CC1 [Saracatinib] + Nc1nc2[nH]cc(CCc3ccc(C(=O)N[C@@H](CCC(=O)O)C(=O)O)cc3)c2c(=O)[nH]1 [Pemetrexed] (partner 0.2 µM)
- relative viability ([1]; first compound 0.02 µM): 0.312
- relative viability ([1]; first compound 0.2 µM): 0.337
- relative viability ([1]; first compound 0.6325 µM): 0.341
- relative viability ([1]; first compound 2 µM): 0.336
- relative viability ([2]; first compound 0.02 µM): 0.963
- relative viability ([2]; first compound 0.2 µM): 0.787
- relative viability ([2]; first compound 0.6325 µM): 0.846
- relative viability ([2]; first compound 2 µM): 1.01
- relative viability ([3]; first compound 0.02 µM): 0.211
- relative viability ([3]; first compound 0.2 µM): 0.2
- relative viability ([3]; first compound 0.6325 µM): 0.176
- relative viability ([3]; first compound 2 µM): 0.184
- relative viability ([4]; first compound 0.02 µM): 0.268
- relative viability ([4]; first compound 0.2 µM): 0.266
- relative viability ([4]; first compound 0.6325 µM): 0.191
- relative viability ([4]; first compound 2 µM): 0.213
- relative viability ([5]; first compound 0.02 µM): 0.916
- relative viability ([5]; first compound 0.6325 µM): 0.925
- relative viability ([5]; first compound 2 µM): 0.841
- relative viability ([6]; first compound 0.02 µM): 0.444
- relative viability ([6]; first compound 0.2 µM): 0.329
- relative viability ([6]; first compound 0.6325 µM): 0.451
- relative viability ([6]; first compound 2 µM): 0.48
- relative viability ([7]; first compound 0.02 µM): 0.18
- relative viability ([7]; first compound 0.2 µM): 0.134
- relative viability ([7]; first compound 0.6325 µM): 0.172
- relative viability ([7]; first compound 2 µM): 0.136
- relative viability ([8]; first compound 0.02 µM): 0.32
- relative viability ([8]; first compound 0.2 µM): 0.199
- relative viability ([8]; first compound 0.6325 µM): 0.205
- relative viability ([8]; first compound 2 µM): 0.161
- relative viability ([9]; first compound 0.02 µM): 0.397
- relative viability ([9]; first compound 0.2 µM): 0.417
- relative viability ([9]; first compound 0.6325 µM): 0.472
- relative viability ([9]; first compound 2 µM): 0.457
- relative viability ([10]; first compound 0.02 µM): 0.875
- relative viability ([10]; first compound 0.2 µM): 0.902
- relative viability ([10]; first compound 0.6325 µM): 0.985
- relative viability ([10]; first compound 2 µM): 1
- relative viability ([11]; first compound 0.02 µM): 0.343
- relative viability ([11]; first compound 0.2 µM): 0.357
- relative viability ([11]; first compound 0.6325 µM): 0.318
- relative viability ([11]; first compound 2 µM): 0.307
- relative viability ([12]; first compound 0.02 µM): 0.633
- relative viability ([12]; first compound 0.2 µM): 0.566
- relative viability ([12]; first compound 0.6325 µM): 0.621
- relative viability ([12]; first compound 2 µM): 0.581
- relative viability ([13]; first compound 0.02 µM): 0.947
- relative viability ([13]; first compound 0.2 µM): 0.766
- relative viability ([13]; first compound 0.6325 µM): 0.743
- relative viability ([13]; first compound 2 µM): 0.568
- relative viability ([14]; first compound 0.02 µM): 0.435
- relative viability ([14]; first compound 0.2 µM): 0.421
- relative viability ([14]; first compound 0.6325 µM): 0.464
- relative viability ([14]; first compound 2 µM): 0.429
- relative viability ([15]; first compound 0.02 µM): 0.683
- relative viability ([15]; first compound 0.6325 µM): 0.613
- relative viability ([15]; first compound 2 µM): 0.519
- relative viability ([16]; first compound 0.02 µM): 0.995
- relative viability ([16]; first compound 0.2 µM): 0.671
- relative viability ([16]; first compound 0.6325 µM): 0.843
- relative viability ([16]; first compound 2 µM): 0.488
- relative viability ([17]; first compound 0.02 µM): 0.625
- relative viability ([17]; first compound 0.2 µM): 0.508
- relative viability ([17]; first compound 0.6325 µM): 0.474
- relative viability ([17]; first compound 2 µM): 0.337
- relative viability ([18]; first compound 0.02 µM): 1.15
- relative viability ([18]; first compound 0.2 µM): 0.918
- relative viability ([18]; first compound 0.6325 µM): 0.735
- relative viability ([18]; first compound 2 µM): 0.747
- relative viability ([19]; first compound 0.02 µM): 0.191
- relative viability ([19]; first compound 0.2 µM): 0.148
- relative viability ([19]; first compound 0.6325 µM): 0.159
- relative viability ([19]; first compound 2 µM): 0.138
- relative viability ([20]; first compound 0.02 µM): 0.254
- relative viability ([20]; first compound 0.2 µM): 0.204
- relative viability ([20]; first compound 0.6325 µM): 0.248
- relative viability ([20]; first compound 2 µM): 0.227
- relative viability ([21]; first compound 0.02 µM): 1.04
- relative viability ([21]; first compound 0.2 µM): 0.709
- relative viability ([21]; first compound 0.6325 µM): 0.656
- relative viability ([21]; first compound 2 µM): 0.469
- relative viability ([22]; first compound 0.02 µM): 0.477
- relative viability ([22]; first compound 0.2 µM): 0.463
- relative viability ([22]; first compound 0.6325 µM): 0.47
- relative viability ([22]; first compound 2 µM): 0.441
- relative viability ([23]; first compound 0.02 µM): 0.809
- relative viability ([23]; first compound 0.2 µM): 0.699
- relative viability ([23]; first compound 0.6325 µM): 0.898
- relative viability ([23]; first compound 2 µM): 0.607
